Experimental data taken from US6022861A, “Ketoheterocyclic inhibitors of factor Xa” (COR Therapeutics, Inc., priority 1995, dated 2000).
pIC50: −log10 of the molar value.

Experiments:
thrombin = thrombin (Homo sapiens, UniProt P00734); experiment: Thrombin amidolytic assay (Chromozym TH); assay type: biochemical; conditions: read-out: Inhibitory Activity (IC50) Thrombin
Procedure: The compounds of the present invention are dissolved in buffer to give solutions containing concentrations such that assay concentrations range from 0 to 100 μM. In the assays for thrombin, prothrombinase and factor Xa, a synthetic chromogenic substrate is added to a solution containing test compound and the enzyme of interest and the residual catalytic activity of that enzyme is determined spectrophotometrically. The IC50 of a compound is determined from the substrate turnover.
The factor Xa and thrombin assays were performed at room temperature, in 0.02 M Tris·HCl buffer, pH 7.5, containing 0.15 M NaCl. The rates of hydrolysis of the para-nitroanilide substrate S-2765 (Chromogenix) for factor Xa, and the substrate Chromozym TH (Boehringer Mannheim) for thrombin following preincubation of the enzyme with inhibitor for 5 minutes at room temperature, and were determined using the Softmax 96-well plate reader (Molecular Devices), monitored at 405 nm to measure the time dependent appearance of p-nitroaniline.

factor Xa = factor Xa (Homo sapiens, UniProt P00742); experiment: Factor Xa amidolytic assay (chromogenic substrate S-2765); assay type: biochemical; conditions: read-out: Inhibitory Activity (IC50) Factor Xa
factor Xa, sequence (P00742 41-179 limits assumed): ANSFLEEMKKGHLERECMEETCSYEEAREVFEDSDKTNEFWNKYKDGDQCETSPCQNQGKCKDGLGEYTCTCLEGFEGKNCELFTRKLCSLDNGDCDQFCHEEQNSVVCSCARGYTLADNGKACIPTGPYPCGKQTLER
factor Xa, sequence (P00742 235-488 limits assumed): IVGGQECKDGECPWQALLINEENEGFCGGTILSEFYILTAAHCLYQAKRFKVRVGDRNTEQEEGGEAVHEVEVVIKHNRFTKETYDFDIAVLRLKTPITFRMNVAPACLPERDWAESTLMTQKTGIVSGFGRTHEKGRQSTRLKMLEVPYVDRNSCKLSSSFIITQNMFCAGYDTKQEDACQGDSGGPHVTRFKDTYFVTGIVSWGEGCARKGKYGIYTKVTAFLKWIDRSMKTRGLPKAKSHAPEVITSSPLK
Procedure: (§1) In the assays for thrombin, prothrombinase and factor Xa, a synthetic chromogenic substrate is added to a solution containing test compound and the enzyme of interest and the residual catalytic activity of that enzyme is determined spectrophotometrically. The IC50 of a compound is determined from the substrate turnover.

[1] = rabbit, in vivo
Text: (§2) Rabbits were anesthetized with I.M. injections of Ketamine, Xylazine, and Acepromazine cocktail. A standardized protocol consisted of insertion of a thrombogenic cotton thread and copper wire apparatus into the abdominal vena cava of the anesthetized rabbit. A non-occlusive thrombus was allowed to develop in the central venous circulation and inhibition of thrombus growth was used as a measure of the antithrombotic activity of the studied compounds. Test agents or control saline were administered through a marginal ear vein catheter. A femoral vein catheter was used for blood sampling prior to and during steady state infusion of test compound. Initiation of thrombus formation begins immediately after advancement of the cotton thread apparatus into the central venous circulation. Test compounds were administered from time=30 min to time=150 min at which the experiment was terminated. The rabbits were euthanized and the thrombus excised by surgical dissection and characterized by weight and histology. Blood samples were analyzed for changes in hematological and coagulation parameters.

[2] = Coagulation parameters (aPTT, PT) in rabbit venous thrombosis model; assay type: in vivo; conditions: for PT fold increase over baseline / aPTT fold increase over baseline: steady state, mean ± SD
Text: as §2

prothrombinase complex = prothrombinase complex (Homo sapiens, UniProt P00742); experiment: Prothrombinase inhibition assay (plasma free system, Chromozym TH); assay type: biochemical; conditions: read-out: Inhibitory Activity (IC50) Prothrombinase
prothrombinase complex, sequence (P00742 41-179 limits assumed): as the sequence (P00742 41-179 limits assumed) above
prothrombinase complex, sequence (P00742 235-488 limits assumed): as the sequence (P00742 235-488 limits assumed) above
prothrombinase complex, sequence (P12259 29-737 partner limits assumed): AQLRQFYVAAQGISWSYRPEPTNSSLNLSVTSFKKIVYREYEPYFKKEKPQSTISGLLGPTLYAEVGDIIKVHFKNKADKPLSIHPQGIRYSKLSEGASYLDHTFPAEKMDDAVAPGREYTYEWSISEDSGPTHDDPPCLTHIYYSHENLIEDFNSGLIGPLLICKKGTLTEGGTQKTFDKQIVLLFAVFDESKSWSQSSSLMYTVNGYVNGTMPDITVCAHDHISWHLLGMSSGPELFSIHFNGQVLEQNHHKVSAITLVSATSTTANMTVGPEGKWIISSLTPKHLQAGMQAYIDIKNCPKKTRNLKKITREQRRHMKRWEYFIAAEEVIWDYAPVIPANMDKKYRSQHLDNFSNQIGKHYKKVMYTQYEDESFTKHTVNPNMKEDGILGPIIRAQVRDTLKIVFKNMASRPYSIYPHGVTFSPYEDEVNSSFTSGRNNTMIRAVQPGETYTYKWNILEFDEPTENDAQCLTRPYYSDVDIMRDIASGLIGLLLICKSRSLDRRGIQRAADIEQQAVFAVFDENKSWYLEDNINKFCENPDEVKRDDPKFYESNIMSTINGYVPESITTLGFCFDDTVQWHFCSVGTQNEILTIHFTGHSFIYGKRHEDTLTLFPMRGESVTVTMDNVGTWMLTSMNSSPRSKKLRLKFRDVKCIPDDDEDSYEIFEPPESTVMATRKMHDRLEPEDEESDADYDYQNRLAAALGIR
prothrombinase complex, sequence (P12259 1574-2224 partner limits assumed): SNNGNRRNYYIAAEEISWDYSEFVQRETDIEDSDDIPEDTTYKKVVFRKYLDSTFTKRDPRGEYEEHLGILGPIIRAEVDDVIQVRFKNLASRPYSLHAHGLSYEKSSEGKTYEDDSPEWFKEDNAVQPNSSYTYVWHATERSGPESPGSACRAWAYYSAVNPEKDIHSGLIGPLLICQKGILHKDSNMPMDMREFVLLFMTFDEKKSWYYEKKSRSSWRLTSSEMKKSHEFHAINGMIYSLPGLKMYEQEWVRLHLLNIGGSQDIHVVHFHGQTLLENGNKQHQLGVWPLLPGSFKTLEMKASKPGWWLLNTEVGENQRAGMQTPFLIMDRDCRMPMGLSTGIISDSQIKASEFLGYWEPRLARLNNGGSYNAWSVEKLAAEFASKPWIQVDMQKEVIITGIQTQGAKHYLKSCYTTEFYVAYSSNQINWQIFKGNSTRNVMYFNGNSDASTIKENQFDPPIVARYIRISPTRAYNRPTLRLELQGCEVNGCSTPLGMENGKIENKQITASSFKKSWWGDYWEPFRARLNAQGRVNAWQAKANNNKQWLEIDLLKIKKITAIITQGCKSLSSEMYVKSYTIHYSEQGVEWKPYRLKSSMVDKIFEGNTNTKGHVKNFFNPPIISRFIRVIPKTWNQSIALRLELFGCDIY
Procedure: as §1

[3] = system: Rabbit Model of Venous Thrombosis; experiment: Rabbit deep vein thrombosis model, inhibition of thrombus growth; assay type: in vivo; conditions: for % Inhibition of Thrombosis: rabbit
Text: as §2

[4] = highest dose (100 μg/kg+2.57 μg/kg/min)

SMILES: N=C(N)NCCC[C@H](NC(=O)CNC(=O)[C@@H](CCCNC(=N)N)NS(=O)(=O)Cc1ccccc1)C(=O)c1nccs1 [BriSO2 -(D)-Arg-Gly-Arg-thiazole, BnSO2 -(D)-Ar g-Gly-Arg-Thiazole]
- pIC50 (thrombin): 5.00

SMILES: NC(N)=NCCCC(N)C(=O)NCC(=O)NC(CCCN=C(N)N)C(=O)c1nccs1 [H-D-Arg-Gly-Arg-thiazole, H-(D)-Arg-Gly-Arg-Thiazole]
- pIC50 (thrombin): 4.39
- pIC50 (factor Xa): 7.96
- effects on hematological parameters [1]: no significant effects
- PT fold increase over baseline ([2]; 50 + 1.28 (μg/kg + μg/kg/min)): 1.00 ± 0.00 fold
- aPTT fold increase over baseline ([2]; 50 + 1.28 (μg/kg + μg/kg/min)): 1.00 ± 0.03 fold
- PT fold increase over baseline ([2]; 75 + 1.93 (μg/kg + μg/kg/min)): 1.00 ± 0.00 fold
- aPTT fold increase over baseline ([2]; 75 + 1.93 (μg/kg + μg/kg/min)): 1.02 ± 0.03 fold
- PT fold increase over baseline ([2]; 100 + 2.57 (μg/kg + μg/kg/min)): 0.83 ± 0.00 fold
- aPTT fold increase over baseline ([2]; 100 + 2.57 (μg/kg + μg/kg/min)): 1.08 ± 0.02 fold
- effect on PT prolongation [2, 4]: no significant effect
- effect on aPTT prolongation [2, 4]: no significant effect
- pIC50 (prothrombinase complex): 8.00
- antithrombotic efficacy in the rabbit venous thrombosis model ([3]; at the higher doses evaluated): demonstrated antithrombotic efficacy
- % Inhibition of Thrombosis ([3]; dose regimen 50 + 1.28 (μg/kg + μg/kg/min)): -7.84%
- % Inhibition of Thrombosis ([3]; dose regimen 75 + 1.93 (μg/kg + μg/kg/min)): 42.95%
- % Inhibition of Thrombosis ([3]; dose regimen 100 + 2.57 (μg/kg + μg/kg/min)): 117.72%
